ChEMBL document CHEMBL5528022, “Discovery of a brain-permeable bromodomain and extra terminal domain (BET) inhibitor with selectivity for BD1 for the treatment of multiple sclerosis” (Eur J Med Chem, 2024)

Legend:
[1] = target: T1, Bromodomain-containing protein 4 (Homo sapiens, UniProt O60885); assay: Binding affinity to BRD4 BD1 (unknown origin) expressed in Escherichia coli BL21 (DE3) at 1:1 protein:compound ratio by MST assay
[2] = target: T1, Bromodomain-containing protein 4; assay: Binding affinity to BRD4 BD2 (unknown origin) expressed in Escherichia coli BL21 (DE3) at 1:1 protein:compound ratio by MST assay
[3] = Selectivity ratio of Kd for binding affinity to BRD4 BD2 (unknown origin) by MST assay to Kd for binding affinity to BRD4 BD1 (unknown origin) by MST assay

Structure (SMILES) | Kd [1] [µM] | Kd [2] [µM] | Selectivity ratio [3]
Cn1cc(-c2cncc(-c3ccnc4nc[nH]c34)c2)c(C(F)(F)F)n1 | 0.33 | 11 | 35
Cc1nn(CC2CCCCC2)c(C)c1-c1cncc(-c2ccnc3nc[nH]c23)c1 | 0.3 | 9.3 | 30
Cc1nn(CC2CCCC2)c(C)c1-c1cncc(-c2ccnc3nc[nH]c23)c1 | 0.99 | 13 | 13
Cc1c(-c2cnccc2-c2ccnc3nc[nH]c23)cnn1C | 2.4 | 178 | 73
Cc1nn(C)c(C)c1-c1cc2c(c(-c3ccnc4nc[nH]c34)c1)OCC2 | 0.18 | 3.1 | 17
Cc1nn(C)c(C)c1-c1cncc(-c2ccnc3nc[nH]c23)c1 | 0.62 | 30 | 48
